Source: patent US20100279990A1, “ANTIPROLIFERATIVE COMPOUNDS, COMPOSITIONS AND METHODS OF USE” (RAMOT AT TEL-AVIV UNIVERSITY LTD., priority 2006, published 2010)

How the values were obtained:
XCL A431 = assay: Monolayer Assay, PI: XCL A431; assay type: cell-based, human
Source text: (§1) This example illustrates cell proliferation data in the form of IC50, IC70 and IC90 values obtained by exposure of human cancer cell-lines to compound (Ia). […].

[1] = tested on: human keratinocytes (HaCat cells); assay: Viability of human keratinocytes (HaCat cells), neutral red staining; assay type: cell-based; conditions: 24 hr, read-out: IC50, cell viability
RXF 393NL = assay: Monolayer Assay, PI: RXF 393NL (Renal); assay type: cell-based, human
Source text: as §1

CNXF SF268 = assay: Monolayer Assay, PI: CNXF SF268; assay type: cell-based, human
Source text: as §1

PXF 1752L = assay: Monolayer Assay, PI: PXF 1752L (Pleuramesothelioma); assay type: cell-based, human
Source text: as §1

[2] = tested on: Caspase 3 activity in human Jurkat lymphoma cells; assay: Caspase 3 activity in human Jurkat lymphoma cell-line, fluorimetric Ac-DEVD-AMC; assay type: cell-based; conditions: 4 hr after exposure, compared to vehicle treated cells
Procedure: This example illustrates Caspase 3 activity data obtained by administering compound (Ia) to a human Jurkat lymphoma cell-line. The results are depicted FIG. 8A. Each point is the mean of 2 determinations.
Caspase 3 activity was measured by an enzymatic fluorimetric method using a fluorigenic substrate (Ac-DEVD-AMC), which produces blue fluorescence detected at 360 nm wavelength. See Garcia-Calvo et al., J Biol Chem, 273(49), 32608-13 (1998). When AMC is cleaved from the substrate by caspase-3, and caspase-3-like enzymes, it produces a yellow-green fluorescence, which can be monitored by a fluorimeter at 460 nm. The amount of yellow green fluorescence is proportional to the activity of caspase-3 in the cell extract sample.
The human Jurkat lymphoma cell-line, as used in FIG. 8A, and the human MDR colon cancer LS1034 lysates, as used in FIG. 8B, were prepared by Triton X-100 extraction 4 hr after exposure to the applicable compound (10 or 20 μM) or the vehicle. Whole cell lysate was added to a buffer containing 100 μM peptide substrate, 100 mM HEPES, 10% glycerol, 1 mM EDTA and 10 mM dithiothreitol. Measurements were taken every 5 min for 80 min. These experiments were also monitored in the presence of a specific caspase-3 inhibitor, DEVD-AMC-CHO, which was added after 45 or 60 min to the reaction mixture, to ascertain the specificity of the enzyme.

OVXF OVCAR3 = assay: Monolayer Assay, PI: OVXF OVCAR3 (Ovarian Cancer); assay type: cell-based, human
Source text: as §1

[3] = tested on: CEM/C1 human leukemia cells; assay: Cell proliferation of CEM/C1 human leukemia cells, 3H thymidine incorporation; assay type: cell-based
Procedure: […] Cells, 10,000/well, were harvested and the incorporated radioactivity was determined by liquid scintillation in a beta counter.

BXF 1218L = assay: Monolayer Assay, PI: BXF 1218L (Bladder); assay type: cell-based, human
Source text: as §1

MEXF 514L = assay: Monolayer Assay, PI: MEXF 514L (Melanoma); assay type: cell-based, human
Source text: as §1

CXF HCT116 = assay: Monolayer Assay, PI: CXF HCT116 (Colorectal); assay type: cell-based, human
Source text: as §1

MEXF 462NL = assay: Monolayer Assay, PI: MEXF 462NL (Melanoma); assay type: cell-based, human
Source text: as §1

[4] = tested on: BCL2 expression in human Jurkat lymphoma cells; assay: Western blot of BCL2 expression in human Jurkat lymphoma cell-line; assay type: cell-based; conditions: FIG. 10
Source text: This example illustrates western blot data corresponding to BCL2 expression in a human Jurkat lymphoma cell-line treated with different concentrations of compound (Ia). The results are depicted in FIG. 10.

For `CN[C@H]1CC[C@@H](c2ccc(Cl)c(Cl)c2)c2ccc(C#CCCCO)cc21` [compound (Ia), (1S-cis)-4-(3,4-dichlorophenyl)-7-(5-hydroxy-1-pentyn-1-yl)-1,2,3,4-tetrahydro-N-methyl-1-naphthalenamine hydroiodide], the “Test/Control (%)” value (XCL A431; 2.3 μg/ml) was 94%, the Test/Control activity class (XCL A431; 2.3 μg/ml) was “− (− (T/C = 50))” and the “Test/Control (%)” value (XCL A431; 7.5 μg/ml) was 6%. The Test/Control activity class (XCL A431; 7.5 μg/ml) was “+++ (+++ (T/C < 10))”, the “Test/Control (%)” value (XCL A431; 23. μg/ml) was 3% and the Test/Control activity class (XCL A431; 23. μg/ml) was “+++ (+++ (T/C < 10))”. The “Test/Control (%)” value (XCL A431; 75. μg/ml) was 2%, the Test/Control activity class (XCL A431; 75. μg/ml) was “+++ (+++ (T/C < 10))” and the “Test/Control (%)” value (XCL A431; .75 μg/ml) was 100%. For the same compound, the Test/Control activity class (XCL A431; .75 μg/ml) was “− (− (T/C = 50))”, the IC50 [1] was 18.5 µM and the “Test/Control (%)” value (RXF 393NL; 2.3 μg/ml) was 91%. The Test/Control activity class (RXF 393NL; 2.3 μg/ml) was “− (− (T/C = 50))”, the “Test/Control (%)” value (RXF 393NL; 7.5 μg/ml) was 5% and the Test/Control activity class (RXF 393NL; 7.5 μg/ml) was “+++ (+++ (T/C < 10))”. For the same compound, the “Test/Control (%)” value (RXF 393NL; 23. μg/ml) was 1%, the Test/Control activity class (RXF 393NL; 23. μg/ml) was “+++ (+++ (T/C < 10))” and the “Test/Control (%)” value (RXF 393NL; 75. μg/ml) was 1%. The Test/Control activity class (RXF 393NL; 75. μg/ml) was “+++ (+++ (T/C < 10))”, the “Test/Control (%)” value (RXF 393NL; .75 μg/ml) was 96% and the Test/Control activity class (RXF 393NL; .75 μg/ml) was “− (− (T/C = 50))”. The “Test/Control (%)” value (CNXF SF268; 2.3 μg/ml) was 70%, the Test/Control activity class (CNXF SF268; 2.3 μg/ml) was “− (− (T/C = 50))” and the “Test/Control (%)” value (CNXF SF268; 7.5 μg/ml) was 5%. The Test/Control activity class (CNXF SF268; 7.5 μg/ml) was “+++ (+++ (T/C < 10))”, the “Test/Control (%)” value (CNXF SF268; 23. μg/ml) was 4% and the Test/Control activity class (CNXF SF268; 23. μg/ml) was “+++ (+++ (T/C < 10))”. The “Test/Control (%)” value (CNXF SF268; 75. μg/ml) was 3%, the Test/Control activity class (CNXF SF268; 75. μg/ml) was “+++ (+++ (T/C < 10))” and the “Test/Control (%)” value (CNXF SF268; .75 μg/ml) was 91%. For the same compound, the Test/Control activity class (CNXF SF268; .75 μg/ml) was “− (− (T/C = 50))”, the “Test/Control (%)” value (PXF 1752L; 2.3 μg/ml) was 81% and the Test/Control activity class (PXF 1752L; 2.3 μg/ml) was “− (− (T/C = 50))”. The “Test/Control (%)” value (PXF 1752L; 7.5 μg/ml) was 27%, the Test/Control activity class (PXF 1752L; 7.5 μg/ml) was “++ (++ (10 <= T/C < 30))” and the “Test/Control (%)” value (PXF 1752L; 23. μg/ml) was 5%. The Test/Control activity class (PXF 1752L; 23. μg/ml) was “+++ (+++ (T/C < 10))”, the “Test/Control (%)” value (PXF 1752L; 75. μg/ml) was 3% and the Test/Control activity class (PXF 1752L; 75. μg/ml) was “+++ (+++ (T/C < 10))”. For the same compound, the “Test/Control (%)” value (PXF 1752L; .75 μg/ml) was 99%, the Test/Control activity class (PXF 1752L; .75 μg/ml) was “− (− (T/C = 50))” and the “Caspase 3 activity” value [2] was “increase in the activity of the caspase-3”. The “Test/Control (%)” value (OVXF OVCAR3; 2.3 μg/ml) was 103%, the Test/Control activity class (OVXF OVCAR3; 2.3 μg/ml) was “− (− (T/C = 50))” and the “Test/Control (%)” value (OVXF OVCAR3; 7.5 μg/ml) was 78%. For the same compound, the Test/Control activity class (OVXF OVCAR3; 7.5 μg/ml) was “− (− (T/C = 50))”, the “Test/Control (%)” value (OVXF OVCAR3; 23. μg/ml) was 4% and the Test/Control activity class (OVXF OVCAR3; 23. μg/ml) was “+++ (+++ (T/C < 10))”. For the same compound, the “Test/Control (%)” value (OVXF OVCAR3; 75. μg/ml) was 5%, the Test/Control activity class (OVXF OVCAR3; 75. μg/ml) was “+++ (+++ (T/C < 10))” and the “Test/Control (%)” value (OVXF OVCAR3; .75 μg/ml) was 109%. The Test/Control activity class (OVXF OVCAR3; .75 μg/ml) was “− (− (T/C = 50))”, the “effect compared to sertraline and paroxetine” value [3] was “significantly higher effects compared to sertraline and paroxetine” and the cell proliferation ([3]; 1 μM, 3H thymidine incorporation 24 hours) was 38.8 % of controls. The inhibition at 10 µM ([3]; Homo sapiens, 10 μM, 3H thymidine incorporation) was ~95%, the “effect on cell proliferation” value ([3]; already evident at 1 μM) was “dose dependent decrease in cell proliferation” and the “Test/Control (%)” value (BXF 1218L; 2.3 μg/ml) was 97%. For the same compound, the Test/Control activity class (BXF 1218L; 2.3 μg/ml) was “− (− (T/C = 50))”, the “Test/Control (%)” value (BXF 1218L; 7.5 μg/ml) was 92% and the Test/Control activity class (BXF 1218L; 7.5 μg/ml) was “− (− (T/C = 50))”. For the same compound, the “Test/Control (%)” value (BXF 1218L; 23. μg/ml) was 4%, the Test/Control activity class (BXF 1218L; 23. μg/ml) was “+++ (+++ (T/C < 10))” and the “Test/Control (%)” value (BXF 1218L; 75. μg/ml) was 5%. For the same compound, the Test/Control activity class (BXF 1218L; 75. μg/ml) was “+++ (+++ (T/C < 10))”, the “Test/Control (%)” value (BXF 1218L; .75 μg/ml) was 101% and the Test/Control activity class (BXF 1218L; .75 μg/ml) was “− (− (T/C = 50))”. The “Test/Control (%)” value (MEXF 514L; 2.3 μg/ml) was 90%, the Test/Control activity class (MEXF 514L; 2.3 μg/ml) was “− (− (T/C = 50))” and the “Test/Control (%)” value (MEXF 514L; 7.5 μg/ml) was 3%. For the same compound, the Test/Control activity class (MEXF 514L; 7.5 μg/ml) was “+++ (+++ (T/C < 10))”, the “Test/Control (%)” value (MEXF 514L; 23. μg/ml) was 2% and the Test/Control activity class (MEXF 514L; 23. μg/ml) was “+++ (+++ (T/C < 10))”. For the same compound, the “Test/Control (%)” value (MEXF 514L; 75. μg/ml) was 3%, the Test/Control activity class (MEXF 514L; 75. μg/ml) was “+++ (+++ (T/C < 10))” and the “Test/Control (%)” value (MEXF 514L; .75 μg/ml) was 108%. The Test/Control activity class (MEXF 514L; .75 μg/ml) was “− (− (T/C = 50))”, the “Test/Control (%)” value (CXF HCT116; 2.3 μg/ml) was 93% and the Test/Control activity class (CXF HCT116; 2.3 μg/ml) was “− (− (T/C = 50))”. For the same compound, the “Test/Control (%)” value (CXF HCT116; 7.5 μg/ml) was 4%, the Test/Control activity class (CXF HCT116; 7.5 μg/ml) was “+++ (+++ (T/C < 10))” and the “Test/Control (%)” value (CXF HCT116; 23. μg/ml) was 2%. The Test/Control activity class (CXF HCT116; 23. μg/ml) was “+++ (+++ (T/C < 10))”, the “Test/Control (%)” value (CXF HCT116; 75. μg/ml) was 1% and the Test/Control activity class (CXF HCT116; 75. μg/ml) was “+++ (+++ (T/C < 10))”. The “Test/Control (%)” value (CXF HCT116; .75 μg/ml) was 99%, the Test/Control activity class (CXF HCT116; .75 μg/ml) was “− (− (T/C = 50))” and the “Test/Control (%)” value (MEXF 462NL; 2.3 μg/ml) was 107%. The Test/Control activity class (MEXF 462NL; 2.3 μg/ml) was “− (− (T/C = 50))”, the “Test/Control (%)” value (MEXF 462NL; 7.5 μg/ml) was 20% and the Test/Control activity class (MEXF 462NL; 7.5 μg/ml) was “++ (++ (10 <= T/C < 30))”. For the same compound, the “Test/Control (%)” value (MEXF 462NL; 23. μg/ml) was 2%, the Test/Control activity class (MEXF 462NL; 23. μg/ml) was “+++ (+++ (T/C < 10))” and the “Test/Control (%)” value (MEXF 462NL; 75. μg/ml) was 2%. The Test/Control activity class (MEXF 462NL; 75. μg/ml) was “+++ (+++ (T/C < 10))”, the “Test/Control (%)” value (MEXF 462NL; .75 μg/ml) was 102% and the Test/Control activity class (MEXF 462NL; .75 μg/ml) was “− (− (T/C = 50))”. The BCL2 expression [4] was “rapid dose dependent decrease in the levels of the protooncogene Bcl2”.
